Data on three substances can be found in patent US20230097580A1, “COMPOSITIONS AND METHODS FOR STIMULATING HAIR GROWTH” (Amplifica, Inc., priority 2020, published 2023).

Where two headings read alike, the source gives them in different places.

The test relates to dorsal skin of P53 mice. Conditions: for hair growth induction: summary of figures; for induction (of anagen / hair growth): 25, 50, 100 µg/mL injections, overall, two mice; for hair growth in injection spot: 3 µL on 3 consecutive days, 18 days after injection; for pigmentation at injection site: at P14.

Excerpt: Follow up experiments included lower HA concentrations (below 250 .mu·g/mL). A small incision was done using a thin needle (insulin syringe) to facilitate injection. […] In FIGS. 5-8, when looking at the back of the mouse with the mouse's head at the top, the control (1% BSA) injection is top left, the 25 .mu·g/ml injection is top right, the 100 .mu·g/ml injection is bottom right, and the 50 .mu·g/ml injection is bottom left.
FIGS. 5 and 6 show representative images of two mice, each of which received injections of low molecular weight HA. FIGS. 7 and 8 show representative images of two mice, each of which received injections of high molecular weight HA.
For high molecular weight the injection site was monitored for 18 days for full anagen.

Consider “hyaluronic acid [high molecular weight HA]”, for which the “induction (of anagen / hair growth)” value was “good induction” and the “pigmentation at injection site” value is listed as “apparent”. For the same substance, the hair growth induction result (50 µg/mL) is on record as “induces”. In addition, the hair growth induction entry (100 µg/mL) is listed as “induces”. The “hair growth in injection spot” value (FIG. 7 mouse, 50 µg/ml) is recorded as “growth”. For the same substance, the “hair growth in injection spot” value (FIG. 7 mouse, 100 µg/ml) is “growth”. The “hair growth in injection spot” value (FIG. 8 mouse, 25 µg/ml) was “growth”. The “hair growth in injection spot” value (FIG. 8 mouse, 50 µg/ml) is listed as “growth”.

Take “hyaluronic acid [intermediate weight HA]”: the “induction (of anagen / hair growth)” value is reported as “no induction”.

Take “hyaluronic acid [low molecular weight HA]”: the “induction (of anagen / hair growth)” value is on record as “good induction” and the “pigmentation at injection site” value is given as “apparent”. For the same substance, the “anagen spot at injection site” value (25 µg/mL, mouse 2 (FIG. 6), only in one mouse) is recorded as “nice anagen spot”. Further, where the note is “100 µg/mL”, the hair growth induction entry was “induced hair growth”. For the setting “FIG. 5 mouse, 25 µg/ml”, the “hair growth in injection spot” value is on record as “growth”. Also, under “FIG. 5 mouse, 100 µg/ml”, the “hair growth in injection spot” value is on record as “growth”. Moreover, the “hair growth in injection spot” value (FIG. 6 mouse, 25 µg/ml) is listed as “growth”. For the setting “FIG. 6 mouse, 100 µg/ml”, the “hair growth in injection spot” value is “growth”.
